Measured values as given in ChEMBL document CHEMBL4261515, “An insight into the therapeutic potential of quinazoline derivatives as anticancer agents” (2017).

Tested on: MCF7
Assay: Potency index, ratio of cisplatin IC50 to test compound IC50 for cytotoxicity against human MCF7 cells after 48 hrs by MTT assay
Assay type: functional

COc1ccc(/C=C2\N=C(c3ccco3)N(n3c(C)nc4c(Br)cc(Br)cc4c3=O)C2=O)cc1
Ratio IC50: 3
